Activity calls are given as the source filed them.
Experiments:
INS1 = assay: INS-1E survival protection against cytokine death – cell-based, luminescence, retest, dose response (AID 449756); format: functional; details: Rattus norvegicus;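 note: cell death triggered by IL-1 beta plus TNF-alpha plus IFN-gamma mixture; protective hits raise ATP signal compared with cytokine alone wells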
Streptococcus = assay: GAS UMAA2166 growth inhibition – luminescence, BacTiterGlo, counter-screen for streptokinase expression inhibitor project, dose response (AID 1915); format: functional, organism-based;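 note: potency for reduction of bacterial viability or growth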
[1] = tested on: Streptococcus sp. 'group A'; assay: Streptococcus pyogenes SK(-)GAS viability under kanamycin – luminescence, BacTiterGlo, confirmation, counter-screen for streptokinase expression inhibitor project, dose response (AID 1900); format: functional, organism-based
[2] = biological target: Serine/threonine-protein phosphatase PP1-alpha catalytic subunit (Homo sapiens, UniProt P62136); assay: inhibition of protein phosphatase 1 activity – biochemical, fluorescence, dose response (AID 2403);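 note: phosphatase turnover of OMFP into fluorescent 3-O-methylfluorescein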
Chain of Serine/threonine-protein phosphatase PP1-alpha catalytic subunit (P62136 whole entry): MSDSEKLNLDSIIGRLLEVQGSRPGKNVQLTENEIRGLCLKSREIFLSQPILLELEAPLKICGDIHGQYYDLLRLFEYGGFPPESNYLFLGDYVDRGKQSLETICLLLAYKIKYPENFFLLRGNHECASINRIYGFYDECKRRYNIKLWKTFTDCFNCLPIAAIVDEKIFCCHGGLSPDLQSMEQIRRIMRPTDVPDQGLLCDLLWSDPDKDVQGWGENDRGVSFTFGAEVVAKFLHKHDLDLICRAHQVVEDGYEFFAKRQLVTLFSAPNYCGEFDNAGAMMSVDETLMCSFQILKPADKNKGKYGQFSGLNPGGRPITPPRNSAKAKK

[3] = biological target: T1, Serine/threonine-protein phosphatase (Homo sapiens, UniProt Q9BPW0); assay: Counterscreen for inhibitors of PP1: fluorescence-based biochemical high throughput dose response assay to identify inhibitors of Protein Phosphatase 5 (PP5). [Related pubchem assays: 2034 (Summary (PP5 inhibitors)), 1987 (PP5 inhibitors in singlate), 2235 (PP1 inhibitors in singlate)]
T1 sequence (Q9BPW0 whole entry): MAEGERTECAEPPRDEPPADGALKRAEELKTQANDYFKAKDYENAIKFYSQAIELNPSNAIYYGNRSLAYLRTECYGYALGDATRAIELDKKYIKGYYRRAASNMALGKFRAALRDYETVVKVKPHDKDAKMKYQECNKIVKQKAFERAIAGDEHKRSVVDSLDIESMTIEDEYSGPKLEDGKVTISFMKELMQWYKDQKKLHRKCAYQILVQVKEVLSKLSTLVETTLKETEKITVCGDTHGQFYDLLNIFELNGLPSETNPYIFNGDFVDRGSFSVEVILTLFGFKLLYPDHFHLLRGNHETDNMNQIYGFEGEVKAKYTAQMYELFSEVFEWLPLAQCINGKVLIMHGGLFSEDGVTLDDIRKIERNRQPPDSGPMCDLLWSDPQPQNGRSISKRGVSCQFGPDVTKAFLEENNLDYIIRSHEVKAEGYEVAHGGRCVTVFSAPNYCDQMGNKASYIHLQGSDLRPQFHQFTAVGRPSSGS

[4] = Trypanosoma cruzi growth suppression in host cells – NIH3T3 host cells, beta-gal luminescence, confirmation (AID 2044); format: functional, cell-based;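 note: intracellular parasites grown in NIH/3T3 mouse fibroblasts as host cells; luminescent beta-galactosidase reporter signal from transgenic T. cruzi replicating inside host cells; inhibitors lower the luminescence signal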
[5] = NIH3T3 cell viability loss – ATP luminescence, mouse fibroblasts, counter-screen, dose response (AID 2010); format: functional, cell-based;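 note: cells exposed to compound for about 90 hours before reading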
Procathepsin L = Procathepsin L (Homo sapiens, UniProt P07711)
Chain of Procathepsin L (P07711 whole entry): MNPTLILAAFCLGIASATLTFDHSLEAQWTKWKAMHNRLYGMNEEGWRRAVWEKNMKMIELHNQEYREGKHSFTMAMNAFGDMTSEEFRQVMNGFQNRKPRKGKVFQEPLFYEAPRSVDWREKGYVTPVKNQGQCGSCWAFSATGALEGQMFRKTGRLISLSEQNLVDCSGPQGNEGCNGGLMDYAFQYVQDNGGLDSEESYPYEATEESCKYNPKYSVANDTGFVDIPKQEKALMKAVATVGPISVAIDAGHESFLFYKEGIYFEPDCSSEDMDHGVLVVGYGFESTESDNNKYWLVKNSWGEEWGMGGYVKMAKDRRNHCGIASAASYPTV

Aspartyl aminopeptidase = Aspartyl aminopeptidase (Plasmodium falciparum 3D7, UniProt Q8I2J3)
Chain of Aspartyl aminopeptidase (Q8I2J3 whole entry): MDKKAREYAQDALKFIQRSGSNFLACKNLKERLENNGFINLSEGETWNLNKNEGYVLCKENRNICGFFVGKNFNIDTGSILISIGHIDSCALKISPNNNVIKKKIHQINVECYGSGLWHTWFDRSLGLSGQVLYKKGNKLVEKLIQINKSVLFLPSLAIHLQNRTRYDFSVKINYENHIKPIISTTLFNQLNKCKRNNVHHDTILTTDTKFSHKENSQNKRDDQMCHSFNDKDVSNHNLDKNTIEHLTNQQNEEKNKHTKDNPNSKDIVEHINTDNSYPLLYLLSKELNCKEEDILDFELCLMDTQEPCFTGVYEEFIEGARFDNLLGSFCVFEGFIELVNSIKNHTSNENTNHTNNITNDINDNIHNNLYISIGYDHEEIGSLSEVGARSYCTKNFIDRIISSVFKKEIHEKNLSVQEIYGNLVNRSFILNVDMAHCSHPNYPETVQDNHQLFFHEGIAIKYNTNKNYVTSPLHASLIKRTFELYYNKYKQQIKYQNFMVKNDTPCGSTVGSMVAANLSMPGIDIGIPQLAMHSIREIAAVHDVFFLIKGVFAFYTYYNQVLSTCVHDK

[6] = biological target: T2, Rac GTPase-activating protein 1 (Homo sapiens, UniProt Q9H0H5); assay: blockers of MgcRacGAP-driven Rac1 GTP hydrolysis – biochemical, ADP Hunter fluorescence, primary and confirmatory, confirmation (AID 624330); format: functional
T2 sequence (Q9H0H5 whole entry): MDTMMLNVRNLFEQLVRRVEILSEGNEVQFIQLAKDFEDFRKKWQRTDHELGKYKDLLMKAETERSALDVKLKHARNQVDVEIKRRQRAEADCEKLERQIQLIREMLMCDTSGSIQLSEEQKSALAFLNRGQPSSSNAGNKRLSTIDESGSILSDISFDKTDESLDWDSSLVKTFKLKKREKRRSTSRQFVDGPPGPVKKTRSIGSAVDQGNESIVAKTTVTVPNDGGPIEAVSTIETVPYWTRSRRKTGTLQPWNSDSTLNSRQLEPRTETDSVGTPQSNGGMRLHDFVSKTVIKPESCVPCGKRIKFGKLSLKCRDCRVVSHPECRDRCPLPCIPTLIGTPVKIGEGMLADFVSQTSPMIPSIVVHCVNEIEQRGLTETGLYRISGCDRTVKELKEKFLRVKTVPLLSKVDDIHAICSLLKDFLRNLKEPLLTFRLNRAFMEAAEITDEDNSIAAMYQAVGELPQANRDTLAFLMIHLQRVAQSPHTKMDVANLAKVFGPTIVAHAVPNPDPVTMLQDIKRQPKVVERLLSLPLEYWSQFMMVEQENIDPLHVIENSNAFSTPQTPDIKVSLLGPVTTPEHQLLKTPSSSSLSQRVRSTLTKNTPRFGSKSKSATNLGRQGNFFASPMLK

[7] = viability of HCT116 lacking mutant beta-catenin – cell-based, human colon tumor, dose response (AID 1045); format: functional;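 note: HCT116 colon tumor cells with beta catenin knocked out; cells exposed to compound for 60 hours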
[8] = biological target: T3, Heat shock factor protein 1 (Mus musculus, UniProt P38532); assay: enhancement of HSF1-driven luciferase signal – cell-based, NIH3T3, luminescence, dose retest, confirmation (AID 435004); format: functional;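 note: stress induced by proteasome inhibitor MG132 added 30 min after compound; luciferase reporter driven by HSF1 response element in NIH3T3 cells; actives raise luminescence as potentiators of the MG132 stress response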
T3 sequence (P38532 whole entry): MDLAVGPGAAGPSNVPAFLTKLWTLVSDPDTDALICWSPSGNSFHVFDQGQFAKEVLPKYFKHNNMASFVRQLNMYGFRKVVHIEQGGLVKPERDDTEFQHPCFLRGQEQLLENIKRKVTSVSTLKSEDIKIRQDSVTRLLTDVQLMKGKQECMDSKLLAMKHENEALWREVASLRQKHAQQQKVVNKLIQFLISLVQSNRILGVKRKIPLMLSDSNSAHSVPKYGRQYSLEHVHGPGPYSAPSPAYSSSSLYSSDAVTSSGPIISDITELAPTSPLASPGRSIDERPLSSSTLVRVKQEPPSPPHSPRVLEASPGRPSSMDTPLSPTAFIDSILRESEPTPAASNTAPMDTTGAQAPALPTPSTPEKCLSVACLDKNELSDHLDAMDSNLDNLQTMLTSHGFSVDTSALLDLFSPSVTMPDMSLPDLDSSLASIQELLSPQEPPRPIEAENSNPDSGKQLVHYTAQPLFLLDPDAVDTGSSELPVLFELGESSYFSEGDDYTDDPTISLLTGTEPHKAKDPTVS

[9] = viability of PTEN-deleted HCT116 cells – cell-based, HCT116 PTEN knockout, dose response (AID 1047); format: functional;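 note: HCT116 colon tumor cells with PTEN knocked out; cells exposed to compound for 60 hours before readout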
[10] = HEK-293T cell viability reduction – luminescence, B-cell screen hits, cytotoxicity control for BCR NF-kB inhibitor project, dose response (AID 489021); format: functional, cell-based;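 note: HEK-293T cells carrying an NF-kB luciferase reporter; cells exposed to compound for about 14 hours before viability readout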
Protein Rev = Protein Rev (Human immunodeficiency virus type 1 group M subtype B (isolate HXB2)(HIV-1), UniProt P04618); assay: blockers of HIV Rev/RRE RNA complex – biochemical, fluorescence polarization, HIV-1, dose response (AID 434976); design: species or system Human immunodeficiency virus 1
Chain of Protein Rev (P04618 whole entry, the tested form may be a part): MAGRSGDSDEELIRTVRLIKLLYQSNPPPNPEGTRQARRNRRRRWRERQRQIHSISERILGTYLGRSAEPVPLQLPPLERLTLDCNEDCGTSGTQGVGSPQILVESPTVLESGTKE

[11] = biological target: T4, Polyadenylate-binding protein 1 (Homo sapiens, UniProt P11940); assay: MLLE domain peptide-binding blockers, IC50 – biochemical, fluorescence polarization, FITC-PAM2 peptide, dose response (AID 602259); format: functional; details: read-out: IC50_Mean
T4 sequence (P11940 whole entry, the tested form may be a part): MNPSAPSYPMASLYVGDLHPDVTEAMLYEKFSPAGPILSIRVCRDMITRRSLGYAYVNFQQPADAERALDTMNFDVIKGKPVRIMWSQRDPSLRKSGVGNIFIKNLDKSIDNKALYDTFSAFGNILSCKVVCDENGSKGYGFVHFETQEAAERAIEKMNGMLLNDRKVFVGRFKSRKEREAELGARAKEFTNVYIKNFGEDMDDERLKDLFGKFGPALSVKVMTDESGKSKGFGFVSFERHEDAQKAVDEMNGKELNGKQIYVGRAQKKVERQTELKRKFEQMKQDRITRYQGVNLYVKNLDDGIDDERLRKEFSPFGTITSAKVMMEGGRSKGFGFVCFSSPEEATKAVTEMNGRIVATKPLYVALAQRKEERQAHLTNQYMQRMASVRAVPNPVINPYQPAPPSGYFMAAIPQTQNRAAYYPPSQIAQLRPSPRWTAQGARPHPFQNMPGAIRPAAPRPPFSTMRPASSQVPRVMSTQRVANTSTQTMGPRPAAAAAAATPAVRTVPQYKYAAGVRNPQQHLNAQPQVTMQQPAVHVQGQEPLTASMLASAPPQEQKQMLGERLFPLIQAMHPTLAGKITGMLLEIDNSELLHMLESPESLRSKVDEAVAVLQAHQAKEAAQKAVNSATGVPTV

[12] = biological target: Female germline-specific tumor suppressor gld-1 (Caenorhabditis elegans, UniProt Q17339); assay: blockers of GLD-1/TGE RNA complex formation – biochemical, fluorescence polarization, C. elegans, dose response (AID 2802);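 note: fluorescence polarization of labeled TGE RNA bound by purified gld-1 protein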
Chain of Female germline-specific tumor suppressor gld-1 (Q17339 whole entry): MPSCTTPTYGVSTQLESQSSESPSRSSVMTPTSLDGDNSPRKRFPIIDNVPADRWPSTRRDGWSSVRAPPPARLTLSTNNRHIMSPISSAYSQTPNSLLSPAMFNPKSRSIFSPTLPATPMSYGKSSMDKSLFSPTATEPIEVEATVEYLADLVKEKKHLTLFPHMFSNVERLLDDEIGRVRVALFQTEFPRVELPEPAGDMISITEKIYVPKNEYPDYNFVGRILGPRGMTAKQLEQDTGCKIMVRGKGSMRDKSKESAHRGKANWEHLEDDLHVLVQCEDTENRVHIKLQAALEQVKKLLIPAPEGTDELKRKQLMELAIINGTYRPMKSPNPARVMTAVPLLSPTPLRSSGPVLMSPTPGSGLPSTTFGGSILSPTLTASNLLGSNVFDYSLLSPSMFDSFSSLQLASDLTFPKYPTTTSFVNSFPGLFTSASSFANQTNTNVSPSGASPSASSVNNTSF

[13] = biological target: T4, Polyadenylate-binding protein 1; assay: MLLE binding blockers, Cy5 peptide tracer – biochemical, fluorescence polarization, Cy5-PAM2 peptide, secondary, miRNA deadenylation inhibitor project, dose response (AID 602260); format: functional; details: read-out: IC50_Mean
Beta Lactamase = Beta Lactamase (Pseudomonas aeruginosa, UniProt Q932Y6); assay: BLA reporter interference, concentration series – BLA reporter cells, FRET fluorescence, artefact control for TLR9-MyD88 binding inhibitor project, dose response (AID 588341); format: cell-based;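 note: cell based assay in CHO-K1 cells stably expressing beta-lactamase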
Chain of Beta Lactamase (Q932Y6 whole entry, the tested form may be a part): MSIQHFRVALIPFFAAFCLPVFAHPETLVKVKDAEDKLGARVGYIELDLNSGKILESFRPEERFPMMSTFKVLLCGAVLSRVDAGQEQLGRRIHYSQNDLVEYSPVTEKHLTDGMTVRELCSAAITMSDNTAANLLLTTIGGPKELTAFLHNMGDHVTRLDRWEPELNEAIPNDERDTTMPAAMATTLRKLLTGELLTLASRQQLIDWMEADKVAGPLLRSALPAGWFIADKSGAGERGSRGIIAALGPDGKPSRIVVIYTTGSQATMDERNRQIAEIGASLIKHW

CHO = CHO cell viability loss, potency – luminescence, cytotoxicity control for TLR9-MyD88 binding inhibitor project, dose response (AID 588339); format: functional, cell-based, hamster; details: Cricetulus griseus;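 note: CHO cells stably coexpressing TLR9 and MyD88 fusions from primary screen; compound exposure lasted 48 hours before viability readout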
[14] = biological target: T5, Zinc finger protein mex-5 (Caenorhabditis elegans, UniProt Q9XUB2); assay: potency of MEX-5 RNA-binding blockers – biochemical, C. elegans, fluorescence polarization, dose response (AID 1960)
T5 sequence (Q9XUB2 whole entry): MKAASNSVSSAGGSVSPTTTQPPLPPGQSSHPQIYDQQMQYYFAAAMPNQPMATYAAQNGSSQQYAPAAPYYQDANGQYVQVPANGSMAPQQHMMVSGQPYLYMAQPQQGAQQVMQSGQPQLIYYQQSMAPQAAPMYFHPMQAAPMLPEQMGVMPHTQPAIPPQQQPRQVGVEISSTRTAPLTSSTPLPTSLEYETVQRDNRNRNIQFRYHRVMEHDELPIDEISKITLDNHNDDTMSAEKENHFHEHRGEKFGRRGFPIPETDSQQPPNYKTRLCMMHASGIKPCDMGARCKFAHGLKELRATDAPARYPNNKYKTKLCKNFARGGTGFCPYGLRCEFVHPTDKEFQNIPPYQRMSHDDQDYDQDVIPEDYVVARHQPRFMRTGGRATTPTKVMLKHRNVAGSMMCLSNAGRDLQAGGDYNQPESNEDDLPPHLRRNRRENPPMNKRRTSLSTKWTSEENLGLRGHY

[15] = biological target: T6, RNA-binding protein pos-1 (Caenorhabditis elegans, UniProt G5EF15); assay: disruptors of C. elegans POS-1 RNA interaction – biochemical, fluorescence polarization, dose response (AID 1964);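 note: purified POS-1 fused to maltose binding protein made in E. coli; potency of compounds blocking POS-1 binding to fluorescent RNA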
T6 sequence (G5EF15 whole entry): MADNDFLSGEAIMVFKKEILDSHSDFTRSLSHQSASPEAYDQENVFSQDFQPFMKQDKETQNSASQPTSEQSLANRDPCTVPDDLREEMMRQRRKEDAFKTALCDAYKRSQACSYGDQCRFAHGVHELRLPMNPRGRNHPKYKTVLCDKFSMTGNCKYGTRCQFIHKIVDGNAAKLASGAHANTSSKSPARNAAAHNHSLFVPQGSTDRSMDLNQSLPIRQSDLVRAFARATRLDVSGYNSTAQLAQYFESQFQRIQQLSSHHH

Large T antigen = Large T antigen (Simian virus 40, UniProt P03070); format: functional, Betapolyomavirus macacae;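 note: Confirmatory-stage PubChem screen for compounds that inhibit SV40 T antigen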
Chain of Large T antigen (P03070 whole entry): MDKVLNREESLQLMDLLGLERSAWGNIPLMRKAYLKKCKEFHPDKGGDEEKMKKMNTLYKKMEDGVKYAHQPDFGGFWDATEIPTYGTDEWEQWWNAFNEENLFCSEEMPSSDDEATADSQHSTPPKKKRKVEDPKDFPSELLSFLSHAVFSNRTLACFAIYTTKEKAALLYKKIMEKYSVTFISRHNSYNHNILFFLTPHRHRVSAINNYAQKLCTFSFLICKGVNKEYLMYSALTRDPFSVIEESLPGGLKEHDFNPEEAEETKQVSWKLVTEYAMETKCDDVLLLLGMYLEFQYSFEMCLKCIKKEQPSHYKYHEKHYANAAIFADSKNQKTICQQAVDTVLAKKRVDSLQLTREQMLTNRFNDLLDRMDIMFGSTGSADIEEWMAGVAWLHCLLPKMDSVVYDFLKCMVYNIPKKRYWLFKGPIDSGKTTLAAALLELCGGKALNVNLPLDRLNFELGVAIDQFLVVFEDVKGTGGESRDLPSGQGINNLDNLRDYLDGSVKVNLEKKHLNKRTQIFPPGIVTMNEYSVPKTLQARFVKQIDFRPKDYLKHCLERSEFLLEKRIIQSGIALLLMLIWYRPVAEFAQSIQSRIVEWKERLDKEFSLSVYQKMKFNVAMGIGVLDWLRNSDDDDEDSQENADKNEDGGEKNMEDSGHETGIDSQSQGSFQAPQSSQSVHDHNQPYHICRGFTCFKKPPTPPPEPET

cells [16] = format: functional, cell-based
[17] = biological target: FAD-linked sulfhydryl oxidase ALR (Homo sapiens, UniProt P55789); assay: ALR-catalysed DTT oxidation blockers – biochemical, H2O2 detection, luminescence, cherry-pick, dose response (AID 493248)
Chain of FAD-linked sulfhydryl oxidase ALR (P55789 whole entry): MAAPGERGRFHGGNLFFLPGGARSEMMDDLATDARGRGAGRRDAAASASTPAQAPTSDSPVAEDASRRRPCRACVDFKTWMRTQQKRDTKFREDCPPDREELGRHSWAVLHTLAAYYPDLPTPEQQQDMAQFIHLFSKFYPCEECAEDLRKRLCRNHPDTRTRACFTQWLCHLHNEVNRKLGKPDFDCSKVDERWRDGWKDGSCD

cells [18] = format: functional, cell-based; remark: listed apart in the source

In the case of `CCOC(=O)c1cnc(-n2nc(C)cc2C)nc1NC(C)c1ccccc1` (stereo not drawn), the AC50 (INS1) is reported as 4.89 µM (active), the EC50 (Streptococcus) is reported as 5.89 µM (active) and the EC50 [1] is reported as 5.04 µM (active). For the same compound, the IC50 [2] was 5.88 µM (active), the IC50 [3] was > 67 µM (not active) and the EC50 [4] was 1.46 µM (active). The EC50 [5] was > 60 µM (not active).

In the case of `O=C(/C=C/c1ccc(O)c(O)c1)NC(=O)c1ccccc1O`, the IC50 (Procathepsin L) is reported as > 59.6 µM (not active), the IC50 (Aspartyl aminopeptidase) is reported as 1.47 µM (active) and the IC50 [6] is reported as 20.2 µM (active).

For `COc1ccc2[nH]c(Sc3c([N+](=O)[O-])nc(C)n3Cc3ccccc3)nc2c1`, the EC50 [7] was 8.94 µM (active), the EC50 [8] was 8.34 µM (active) and the EC50 [9] was 9.43 µM (active). For the same compound, the IC50 [10] was > 80 µM (inactive).

For `O=C(CN1C(=O)NC2(CCCCC2)C1=O)Oc1ccc2c(C(F)(F)F)cc(=O)oc2c1`, the IC50 (Protein Rev) was 65.3 µM (not active), the IC50 [11] was 38.3 µM (inactive) and the IC50 [12] was 4.07 µM (active). The IC50 [13] was > 66 µM (inactive), the IC50 (Beta Lactamase) was 3.48 µM (active) and the IC50 (CHO) was > 49.7 µM (inactive).

With `Oc1ccc(-c2cn3ccccc3n2)cc1O` the EC50 [14] was 13.6 µM (active), the EC50 [15] was > 300 µM (not active) and the IC50 (Procathepsin L) was > 59.6 µM (not active). The IC50 (Large T antigen) was 5.28 µM (active), the EC50 (cells [16]) was > 350 µM (not active) and the IC50 (Aspartyl aminopeptidase) was 2.56 µM (active). For the same compound, the AC50 [17] was 1.32 µM (active) and the EC50 (cells [18]) was 25.3 µM (active).

From ChEMBL document CHEMBL1201862, “PubChem BioAssay data set” (2004)
